# Legend:
# [1] = tested on: bleomycin-induced skin fibrosis; experiment: Bleomycin-induced skin fibrosis in mice: skin histopathology (dermal thickness, capillary density score, inflammatory cell infiltration score); format: in vivo, male C57BL/6 mice; conditions: 50 mg/kg IP QD, 28 days
# Experimental: The skin tissue of the lesioned skin was subjected to dehydration, embedding and sectioning according to the pathology SOP, and the tissue was stained by HE and Masson staining. Histopathological analysis was performed according to the following methods:
# Masson-stained sections were panoramically scanned by using Nanozomer S210 and the scanned images were subjected to quantitative analysis using Visiopharm VIS6.0 software. The degree of fibrosis was currently represented by the dermal thickness after Masson staining.
# The fields of observation was selected in the dermis layer of the lesioned area (the number of fields selected was determined according to the size of the lesioned area) and scored according to the area occupied by capillaries in the area: • 0: No capillary formed • 1: The proportion of capillaries formed was less than 25%; • 2: The proportion of capillaries formed was 25-50%; • 3: The proportion of capillaries formed was 50-75%; • 4: The proportion of capillaries formed was greater than 75%. 3.8.3 Inflammatory cell infiltration score of dermis layer
# The fields of observation was selected in the dermis layer of the lesioned area (the number of fields selected was determined according to the size of the lesioned area) and scored according to the degree of inflammatory cell infiltration: • 0: No inflammatory cell infiltration: • 1: A small amount of focal inflammatory cell infiltration; • 2: Scattered diffuse inflammatory cell infiltration: • 3: A large amount of diffuse inflammatory cell infiltration; • 4: A large amount of agglomerated inflammatory cell infiltration.
# [2] = tested on: bleomycin-induced skin fibrosis; experiment: Bleomycin-induced skin fibrosis in mice: body weight, spleen weight, spleen/body weight ratio (Example 5); format: in vivo, male C57BL/6 mice; conditions: 50 mg/kg IP QD, 28 days
# Experimental: Isoflurane (2.0 to 2.5%) was used to anesthetize the animals. The fur of the back was removed, and a 1 cm^2 area was selected for intradermal injection of bleomycin (0.3 mg/kg, 100 μL) every two days to establish a skin fibrosis model.
# Dosing started on the day of model establishment. Each animal was weighed for the animal body weight before dosing to calculate the volume of administration, wherein the period of administration was 28 days. […] Frequency of administration: twice a day for Nintedanib group and once a day for other groups.
# The change in animal body weight was recorded twice a week from the date of model establishment. The clinical manifestations of animals, such as shortness and difficulty of breath, abdominal suction, decreased activity and malaise, were closely observed.
# Animals were weighed at the experimental endpoints and the body weight was recorded to calculate the volume of administration. 6 h after dosing, firstly, whole blood was collected from the orbital venous plexus of mice and subjected to blood routine test using an automated Hematology analyzer (Sysmex XS-800i). […]
# Then the animals were euthanized by intraperitoneal injection of pentobarbital sodium. The material and order of dissection were as follows: Spleen was collected and weighed and the weight was recorded. […]
# The mean±SEM was calculated using Graphpad prism 6.0 software. […]
compound,measurement,setting,value
Cc1ccc(NC(=O)c2ccc(CN3CCN(C)CC3)cc2)cc1Nc1nccc(-c2cccnc2)n1 [Imatinib],inflammatory cell infiltration of the lesioned skin,[1],visibly reduce
same,subdermal capillary hyperplasia,[1],visibly reduce
same,death of animals,[2],One animal in Imatinib group died on Day 28

# Reference: patent publication US20250134870A1, “PATHWAY MODULATOR, PHARMACEUTICAL COMPOSITION HAVING SAME, USE THEREOF, AND THERAPEUTIC METHOD USING SAME” (Jiangsu Yahong Meditech Co., Ltd., priority 2021, published 2025)
